Assay results reported in patent US20240299376A1, “METHOD OF TREATING A CONDITION USING A […] EFFECTIVE DOSE OF 1-(1-OXO-1,2-DIHYDROISOQUINOLIN-5-YL)-5-(TRIFLUOROMETHYL)-N-(2-(TRIFLUOROMETHYL)PYRIDIN-4-YL)-1H-PYRAZOLE-4-CARBOXAMIDE” (Janssen Pharmaceutica NV, priority 2021, published 2024).
Like-named read-outs stand apart in the source and are kept apart here. Marks after values point to notes of the source that are not given here.

Assays:
[1] = system: HBL1 (CD79b/Myd88/A20 mut); test: Anti-proliferative activity, DLBCL cell line panel; format: cell-based; details: HBL1, 192 h; antiproliferation after 8 days of treatment
Procedure: (§1) Four ABC-DLBCL cell lines with activating mutations in the canonical NFκB pathway were evaluated (OCI-LY3 (CARD11, MYD88 & A20 mutations), TMD8, HBL1, and OCI-LY10 (CD79B & MYD88 mutations)), which are generally sensitive to NF-κB pathway inhibition. None of the GCB-DLBCL cell lines harbor mutations in the NF-κB pathway. The GCB-DLBCL cell lines served as a negative control to exclude compounds with general cytotoxic effects.
(§2) At concentrations ≥20 μM general cytotoxicity was observed.

OCT-Ly7 (no NF-κB mut) = test: Anti-proliferative activity, DLBCL cell line panel; format: cell-based; details: 192 h; antiproliferation after 8 days of treatment
Procedure: as §1, §2

[2] = system: OCI-LY3 (Myd88/CARD11 A20 mut); test: Anti-proliferative activity, DLBCL cell line panel; format: cell-based; details: Homo sapiens
Procedure: as §1, §2

SU-DHL4 (no NF-κB mut) = test: Anti-proliferative activity, DLBCL cell line panel; format: cell-based; details: Homo sapiens, SU-DHL-4, 192 h; antiproliferation after 8 days of treatment
Procedure: as §1, §2

[3] = system: TMD8 (CD79b/Myd88/A20 mut); test: Anti-proliferative activity, DLBCL cell line panel; format: cell-based; details: Homo sapiens, TMD8, 192 h; antiproliferation after 8 days of treatment
Procedure: as §1, §2

OCI-Ly1 (no NF-κB mut) = test: Anti-proliferative activity, DLBCL cell line panel; format: cell-based; details: Homo sapiens, OCI-Ly1, 192 h; antiproliferation after 8 days of treatment
Procedure: as §1, §2

[4] = Serum and tumor levels after multiple oral doses in male OCI-LY3 tumor-bearing NSG mice; format: in vivo; details: mean (SD); for concentration at 7 h / concentration at 12 h / concentration at 4 h / concentration at 24 h / Kp at 12 h / Kp at 24 h: male, NSG, mouse; for concentration at 7 h: 7 h post dose; for Kp at 12 h: Day 5, 12 h post dose, read-out: Tumor: serum ratio; for Kp at 24 h: read-out: Tumor:serum ratio
Procedure: Serum samples were collected at 7 and 12 hours post dose and tumor samples were collected 12 hours post last dose from the twice-daily-treated animals. From once-daily-treated animals, serum samples were collected at 4, 12, and 24 hours post dose and tumor samples were collected at 24 hours post last dose.

[5] = system: phosphorylation of IκBα in OCI-LY3 cells; details: unstimulated conditions
Text: The phospho-IκBα (pIκBα) signal was quantified as percent of DMSO control and normalized against β-tubulin.

primary T cells = test: Treg/Teff ratio after CD3/28 stimulation of primary T cells (flow cytometry); format: cell-based, human; details: compound added 24 hours after CD3/28 stimulation, for 72 hours
Text: The role of MALT1 in the immunologic activity of T cells was investigated by looking at the proportions of Treg and effector T cells (Teff). These cells are in a dynamic balance and their ratio correlates with the effectiveness of protective immunity. An accumulation of Tregs, resulting in a higher Treg/Teff ratio within tumor tissue, is associated with worse prognosis in cancer. Whiteside T L. What are regulatory T cells (Treg) regulating in cancer and why? Semin Cancer Biol. 2012, 22, 327-34. In vitro, activation of T cells through TCR stimulation increases the Treg/Teff ratio by increasing the Treg population, as defined by CD4^+CD25^hiFOXP3^hi.
After 24 hours of pre-stimulation, the compound was added for 72 hours. Alternatively, the compound was added together with the CD3/28 stimulus for 96 hours. Cells were stained for flow cytometric analysis (BD Facs Verse). After gating on the living singlet population, the proportions of CD8^+ Teff and CD4^+CD25^hiFOXP3^hi Treg subpopulations were analysed.

[6] = Serum and tumor levels after a single oral dose in male OCI-LY3 tumor-bearing NSG mice; format: in vivo; details: 100 mg/kg single oral dose, PEG400 solution, mean (SD)
Procedure: For PD, when tumors reached 550-750 mm^3 animals were assigned randomly into the treatment groups and treated as presented in Table 5. Dose volumes were adjusted to individual body weights at 10 mL/kg. For both PD studies, serum was collected at 2 and 12 hours post treatment from the retro-orbital sinus. At 24 hours post treatment, animals were bled via decapitation and tumors were excised, weighed, and divided for bioanalysis and ex vivo PD analysis. Blood was centrifuged at 10,000 rpm and serum divided for bioanalysis and PD analysis.
Serum samples were collected at 2, 12, and 24 hours post dose and tumor samples were collected 24 hours post dose.

SMILES: O=C(Nc1ccnc(C(F)(F)F)c1)c1cnn(-c2cccc3c(=O)[nH]ccc23)c1C(F)(F)F [Compound A, 1-(1-oxo-1,2-dihydroisoquinolin-5-yl)-5-(trifluoromethyl)-N-[2-(trifluoromethyl)pyridin-4-yl]-1H-pyrazole-4-carboxamide]
- IC50 [1]: 547 nM
- IC50 (OCT-Ly7 (no NF-κB mut)): > 10000 nM
- IC50 ([2]; OCI-Ly3, 192 h, antiproliferation after 8 days of treatment): 496 nM
- IC50 ([2]; Proliferation, OCI-LY3): 496 ± 262 nM
- IC50 (SU-DHL4 (no NF-κB mut)): 6000 nM
- IC50 [3]: 635 nM
- IC50 (OCI-Ly1 (no NF-κB mut)): > 10000 nM
- Serum concentration ([4]; 10 mg/kg twice daily PO, Day 5 eight doses given, 12 h post dose (trough)): 2,202 (313) ng/ml
- concentration at 7 h ([4]; serum, oral, 10 mg/kg, 10 mg/kg twice daily PO, Day 1 following first dose): 3260 ng/mL
- concentration at 12 h ([4]; serum, oral, 10 mg/kg, 10 mg/kg twice daily PO, Day 1 following first dose, 12 h post dose, read-out: Serum concentration): 2440 ng/mL
- concentration at 7 h ([4]; serum, oral, 10 mg/kg, 10 mg/kg twice daily PO, Day 4 seven doses given): 3760 ng/mL
- concentration at 12 h ([4]; serum, oral, 10 mg/kg, 10 mg/kg twice daily PO, Day 5 eight doses given, 12 h post dose (trough), read-out: Serum concentration): 2200 ng/mL
- concentration at 7 h ([4]; serum, oral, 30 mg/kg, 30 mg/kg twice daily PO, Day 1 following first dose): 9970 ng/mL
- concentration at 12 h ([4]; serum, oral, 30 mg/kg, 30 mg/kg twice daily PO, Day 1 following first dose, 12 h post dose, read-out: Serum concentration): 9000 ng/mL
- concentration at 7 h ([4]; serum, oral, 30 mg/kg, 30 mg/kg twice daily PO, Day 4 seven doses given): 7420 ng/mL
- concentration at 12 h ([4]; serum, oral, 30 mg/kg, 30 mg/kg twice daily PO, Day 5 eight doses given, 12 h post dose, read-out: Serum concentration): 3890 ng/mL
- concentration at 7 h ([4]; serum, oral, 100 mg/kg, 100 mg/kg twice daily PO, Day 1 following first dose): 16200 ng/mL
- concentration at 12 h ([4]; serum, oral, 100 mg/kg, 100 mg/kg twice daily PO, Day 1 following first dose, 12 h post dose, read-out: Serum concentration): 13300 ng/mL
- concentration at 12 h ([4]; serum, oral, 100 mg/kg, 100 mg/kg twice daily PO, Day 5 eight doses given, 12 h post dose, read-out: Serum concentration): 6910 ng/mL
- concentration at 4 h ([4]; serum, oral, once daily PO, dose not printed in Table 8 (first group; b301: 60 and 100 mg/kg), Day 1, 4 h post dose): 15000 ng/mL
- concentration at 4 h ([4]; serum, oral, once daily PO, dose not printed in Table 8 (second group; b301: 60 and 100 mg/kg), Day 1, 4 h post dose): 18100 ng/mL
- concentration at 24 h ([4]; serum, po, once daily PO, dose not given (first group), Day 1, 24 h post dose, read-out: Serum concentration): 2060 ng/mL
- concentration at 4 h ([4]; serum, po, once daily PO, dose not given (first group), Day 4, 4 h post dose): 9850 ng/mL
- concentration at 12 h ([4]; serum, po, once daily PO, dose not given (first group), Day 4, 12 h post dose, read-out: Serum concentration): 8680 ng/mL
- concentration at 24 h ([4]; serum, po, once daily PO, dose not given (first group), Day 4, 24 h post dose, read-out: Serum concentration): 1380 ng/mL
- concentration at 24 h ([4]; serum, po, once daily PO, dose not given (second group), Day 1, 24 h post dose, read-out: Serum concentration): 1970 ng/mL
- concentration at 4 h ([4]; serum, po, once daily PO, dose not given (second group), Day 4, 4 h post dose): 12600 ng/mL
- concentration at 12 h ([4]; serum, po, once daily PO, dose not given (second group), Day 4, 12 h post dose, read-out: Serum concentration): 11000 ng/mL
- concentration at 24 h ([4]; serum, po, once daily PO, dose not given (second group), Day 4, 24 h post dose, read-out: Serum concentration): 2800 ng/mL
- Kp at 12 h ([4]; tumor and serum, 10 mg/kg twice daily PO): 1
- Kp at 12 h ([4]; tumor and serum, 30 mg/kg twice daily PO): 1.3
- Kp at 12 h ([4]; tumor and serum, 100 mg/kg twice daily PO): 1.3
- Kp at 24 h ([4]; tumor and serum, once daily PO, dose not given (first group), Day 4, 24 h post dose): 1.9
- concentration at 12 h ([4]; tumor, oral, 10 mg/kg, 10 mg/kg twice daily PO, Day 5 eight doses given, 12 h post dose, read-out: Tumor concentration): 2160 ng/g
- concentration at 12 h ([4]; tumor, oral, 30 mg/kg, 30 mg/kg twice daily PO, Day 5 eight doses given, 12 h post dose, read-out: Tumor concentration): 5050 ng/g
- concentration at 12 h ([4]; tumor, oral, 100 mg/kg, 100 mg/kg twice daily PO, Day 5 eight doses given, 12 h post dose, read-out: Tumor concentration): 8830 ng/g
- concentration at 24 h ([4]; tumor, po, once daily PO, dose not given (first group), Day 4, 24 h post dose, read-out: Tumor concentration): 2460 ng/g
- concentration at 24 h ([4]; tumor, po, once daily PO, dose not given (second group), Day 4, 24 h post dose, read-out: Tumor concentration): 4300 ng/g
- Kp at 24 h ([4]; tumor/serum, once daily PO, dose not given (second group), Day 4, 24 h post dose): 1.6
- inhibition of phospho-IκBα [5]: did not inhibit phospho-IκBα
- effect on Treg and Teff populations (primary T cells): did not influence the Treg and Ter populations
- Serum concentration ([6]; 12 h post dose): 4,118 (1,322 ng/ml
- Tumor concentration ([6]; 24 h post dose, N = 4): 1,180 (223)^b ng/g
- concentration at 2 h ([6]; male, NSG, mouse, serum, 2 h post dose): 3730 ng/mL
- concentration at 24 h ([6]; male, NSG, mouse, serum, 24 h post dose): 1060 ng/mL
